# Laboratory results reported in ChEMBL document CHEMBL1141740, “Studies on the Synthesis of Elegan-Type Linear Diterpenes: The Efficient Total Syntheses of Eleganolone, Eleganolone Acetate, Elegandiol, Eleganonal, and Epoxyeleganolone” (J Nat Prod, 1998).
# Legend:
# Format in all cases: functional, tissue-based
# Conditions in all cases: Cavia porcellus
# [1] = test system: Ileum; assay: Relaxation activity in guinea pig ileum assessed as relaxation of KCl-induced muscle contractions
# [2] = test system: Ileum; assay: Relaxation activity in guinea pig ileum assessed as inhibition of histamine-induced muscle contractions
# [3] = test system: Ileum; assay: Relaxation activity in guinea pig ileum assessed as relaxation of BaCl2-induced muscle contractions
# [4] = test system: Ileum; assay: Relaxation activity in guinea pig ileum assessed as inhibition of acetylcholine-induced muscle contractions
IC50 [1] [µM],IC50 [2] [µM],IC50 [3] [µM],IC50 [4] [µM],Compound,Activity [1],Activity [3]
18.6,14.5,45.7,25.1,CC(C)=CC(=O)C/C(C)=C/CC/C(C)=C/CC/C(C)=C/CO [ELEGANOLONE],Dose-dependent effect,Dose-dependent effect
33.9,6.61,45.7,19.5,CC(=O)OC/C=C(\C)CC/C=C(\C)CC/C=C(\C)CC(=O)C=C(C)C [ELEGANOLONE ACETATE],Dose-dependent effect,Dose-dependent effect
